Series [1] has as its system immune cell clusters (CD45+ cells). Put plainly: CyTOF mass cytometry of blood and spleen with Citrus analysis. The format is in vivo, mice. The settings on record: 6-OHDA 150 mg/kg twice IP (SNS ablated); splenocytes 24 h after VTA activation. The method, then: Two weeks after completion of the behavioral testing, mice were injected intraperitoneally with CNO and anesthetized 24 hours thereafter. Spleens and blood samples were collected. Spleens were dissociated into single-cell suspensions in 2% fetal bovine serum (Biological Industries, IL) and mesh filtered to remove clumps and debris. Blood samples were collected into heparin-coated sterile test tubes. Both the blood and the spleen cell suspensions were lysed with red blood cell lysis buffer (BD Biosciences, NJ, US). Cells ([…]) from each tissue were stained, for 1 hour at room temperature, with a mixture of metal tagged antibodies recognizing CD45, CCR3, CD80, GR1, CD86, CD19, CD4, CD45R, CD152, CD138, CD8, NK1.1, CD27, CD206, CD25, CD14, CD11c, CD49b, CD34, CD69, CD123, TCRβ, CCR7, CD28, CD115, CD133, TLR4, CD117, CD79b, CD62L, CD44, CD45RA, CD1d, IAIE, CD5, and CD11b. All antibodies were conjugated using the MAXPAR reagent (Fluidigm Inc.), with Rhodium and Iridium intercalators used to identify live/dead cells. Cells were washed twice with PBS, fixed in 1.6% formaldehyde (Sigma-Aldrich, St. Louis, MO) for 1 hour, washed again in ultrapure H2O and subjected to CyTOF mass cytometry analysis on a CyTOF I machine, with cell events acquired at approximately 500 events per second. In addition, each sample was spiked with internal metal isotope bead standards, which then was used for sample normalization by CyTOF software (Fluidigm). Acquired data was then uploaded to a Cytobank web server (Cytobank Inc.) for data processing and gating out of dead cells and normalization beads. Data was transformed using an arc sin h (X/5) transformation.
Differences in cell subset abundance and functional marker expression between VTA activated and control mice, were identified using the Citrus algorithm, a clustering and differential detection algorithm especially suited for high dimensional cytometry data (2). Twenty FCS files of normalized, live cell/no beads samples (Five VTA activated mice spleens, five VTA activated mice blood samples, 5 control mice spleen and five control mice blood) were each randomly sampled for 40,000 single cell events each. Briefly, Citrus performs three steps to identify cell subsets and differences between groups: First, collected single cell events are pooled together and iteratively hierarchically clustered using a subset of the measured channels for clustering (See Table 1 for a list of 23 clustering markers), yielding overlapping clusters with the ultimate cluster being one encompassing all sampled events. Second, the pooled dataset is split back into its constituting samples and the relative abundance of cells in each cluster is computed, as well as the median values of each functional marker (see Table 1 for a list of functional markers). Only cell clusters whose total abundance in one or more of the measured samples was greater than 1% of the total measured sample was retained for downstream analysis, yielding a total of 151 clusters. Third, the Citrus implementation of the SAM algorithm was applied, to identify, separately, differences in cell subset abundances and medians between VTA activated and control mouse samples at a predetermined FDR of 5%. Beyond this, an additional criteria for calling differences was employed, by performing a Mann-Whitney non-parametric test of significance on each cluster found to be different between VTA activated and control and requiring that it meet a p-value <0.05 criteria. Manual inspection of Citrus output was used to identify the closest known gross-cell type, matching the 23 combination clustering marker panel. A similar procedure analysis procedure was performed for 6-OHDA samples versus control. […]

The conditions of series [2]: IP injected; cited from earlier work.

The structures appear in SMILES notation.

On to `NCCc1cc(O)c(O)cc1O` [6 OHDA, 6-hydroxydopamine], for which the “differences in immune system (CD45+ cells) between VTA-activated and control mice” value in series [1] is on record as “no significant differences were detected”. The “crossing of the blood brain barrier” value in series [2] was “does not cross the blood brain barrier”.

(Values after patent US12201628B2, “Neuronal modulation” (priority 2013, dated 2025).)
